Assay results: publication PMC11233931, “Remodeling tumor‐associated macrophage for anti‐cancer effects by rational design of irreversible inhibition of mitogen‐activated protein kinase‐activated protein kinase 2” (MedComm, 2024)

Columns and labels:
Assay in all cases: Eurofins kinase selectivity profile against 380 other human recombinant kinases (Table S2)
Format in all cases: biochemical
[1] = target: T1, 380 human recombinant protein kinases (Homo sapiens, UniProt P07333); conditions: Fms(h), read-out: Inhibition rate
T1 construct: purchased Eurofins (Celle Lévescault)
Outline: (§1)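 Off-target profiling: one compound assayed by a commercial provider over 380 recombinant human protein kinases at various concentrations.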

[2] = target: T2, 380 human recombinant protein kinases (Homo sapiens, UniProt O15075); conditions: DCAMKL1(h), read-out: Inhibition rate
T2 construct: purchased Eurofins (Celle Lévescault)
Outline: as §1

[3] = target: T3, 380 human recombinant protein kinases (Homo sapiens, UniProt Q13464); conditions: ROCK-I(h), read-out: Inhibition rate
T3 construct: purchased Eurofins (Celle Lévescault)
Outline: as §1

[4] = target: T4, 380 human recombinant protein kinases (Homo sapiens, UniProt P0C1S8); conditions: Wee1B(h), read-out: Inhibition rate (%)
T4 construct: purchased Eurofins (Celle Lévescault)
Outline: as §1

[5] = target: T5, 380 human recombinant protein kinases (Homo sapiens, UniProt P51451); conditions: Blk(h), read-out: Inhibition rate
T5 construct: purchased Eurofins (Celle Lévescault)
Outline: as §1

[6] = target: T6, 380 human recombinant protein kinases (Homo sapiens, UniProt P35626); conditions: GRK3(h), read-out: Inhibition rate
T6 construct: purchased Eurofins (Celle Lévescault)
T6 sequence (P35626 1-688): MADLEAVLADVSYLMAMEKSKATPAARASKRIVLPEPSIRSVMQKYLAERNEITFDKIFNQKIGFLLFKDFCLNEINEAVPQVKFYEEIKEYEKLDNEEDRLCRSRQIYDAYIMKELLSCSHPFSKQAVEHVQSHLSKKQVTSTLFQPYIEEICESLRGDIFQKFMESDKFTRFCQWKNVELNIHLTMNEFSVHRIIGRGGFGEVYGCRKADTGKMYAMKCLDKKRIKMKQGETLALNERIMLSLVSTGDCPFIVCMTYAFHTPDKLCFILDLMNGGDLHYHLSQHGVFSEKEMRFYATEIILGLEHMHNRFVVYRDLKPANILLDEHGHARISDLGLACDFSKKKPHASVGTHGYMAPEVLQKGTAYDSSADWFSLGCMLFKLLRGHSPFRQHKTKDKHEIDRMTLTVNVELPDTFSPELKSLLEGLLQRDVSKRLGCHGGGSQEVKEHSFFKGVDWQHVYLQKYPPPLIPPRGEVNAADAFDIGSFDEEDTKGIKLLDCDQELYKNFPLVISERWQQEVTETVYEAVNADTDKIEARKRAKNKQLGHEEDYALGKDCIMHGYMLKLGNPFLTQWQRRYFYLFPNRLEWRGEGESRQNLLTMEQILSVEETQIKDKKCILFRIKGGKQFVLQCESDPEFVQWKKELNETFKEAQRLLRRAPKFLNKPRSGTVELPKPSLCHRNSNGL
Outline: as §1

[7] = target: T7, 380 human recombinant protein kinases (Homo sapiens, UniProt Q9P289); conditions: MST4(h), read-out: Inhibition rate
T7 construct: purchased Eurofins (Celle Lévescault)
Outline: as §1

[8] = target: T8, 380 human recombinant protein kinases (Homo sapiens, UniProt Q9NYL2); conditions: ZAK(h), read-out: Inhibition rate (%)
T8 construct: purchased Eurofins (Celle Lévescault)
Outline: as §1

[9] = target: T9, 380 human recombinant protein kinases (Homo sapiens, UniProt Q16566); conditions: CaMKIV(h), read-out: Inhibition rate
T9 construct: purchased Eurofins (Celle Lévescault)
T9 sequence (Q16566 1-473): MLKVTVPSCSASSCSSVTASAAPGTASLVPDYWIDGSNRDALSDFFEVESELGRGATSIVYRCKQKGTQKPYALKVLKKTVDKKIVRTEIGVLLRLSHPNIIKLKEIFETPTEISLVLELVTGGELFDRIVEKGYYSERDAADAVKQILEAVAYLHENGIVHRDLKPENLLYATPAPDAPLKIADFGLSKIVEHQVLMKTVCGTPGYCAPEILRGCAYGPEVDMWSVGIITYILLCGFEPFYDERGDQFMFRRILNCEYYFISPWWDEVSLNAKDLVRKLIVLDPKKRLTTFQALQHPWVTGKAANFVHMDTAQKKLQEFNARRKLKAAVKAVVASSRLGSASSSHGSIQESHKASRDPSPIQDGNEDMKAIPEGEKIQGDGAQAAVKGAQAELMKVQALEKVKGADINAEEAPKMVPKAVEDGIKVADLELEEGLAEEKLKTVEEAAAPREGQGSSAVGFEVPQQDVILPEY
Outline: as §1

T5 sequence (P51451 whole entry): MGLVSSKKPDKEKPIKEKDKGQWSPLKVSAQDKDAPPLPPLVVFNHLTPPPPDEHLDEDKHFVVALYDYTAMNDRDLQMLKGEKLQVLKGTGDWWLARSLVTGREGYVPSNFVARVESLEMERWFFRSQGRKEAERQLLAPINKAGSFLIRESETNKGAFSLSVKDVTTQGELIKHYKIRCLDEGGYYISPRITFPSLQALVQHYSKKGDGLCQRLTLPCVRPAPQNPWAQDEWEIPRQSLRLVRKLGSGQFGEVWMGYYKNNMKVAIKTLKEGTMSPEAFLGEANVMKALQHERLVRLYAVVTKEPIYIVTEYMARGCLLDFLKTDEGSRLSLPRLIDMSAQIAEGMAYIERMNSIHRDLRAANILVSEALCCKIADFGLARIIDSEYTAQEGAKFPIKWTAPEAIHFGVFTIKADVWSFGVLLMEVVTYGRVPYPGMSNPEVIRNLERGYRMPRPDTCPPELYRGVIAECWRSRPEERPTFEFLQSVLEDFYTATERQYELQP
T2 sequence (O15075 whole entry): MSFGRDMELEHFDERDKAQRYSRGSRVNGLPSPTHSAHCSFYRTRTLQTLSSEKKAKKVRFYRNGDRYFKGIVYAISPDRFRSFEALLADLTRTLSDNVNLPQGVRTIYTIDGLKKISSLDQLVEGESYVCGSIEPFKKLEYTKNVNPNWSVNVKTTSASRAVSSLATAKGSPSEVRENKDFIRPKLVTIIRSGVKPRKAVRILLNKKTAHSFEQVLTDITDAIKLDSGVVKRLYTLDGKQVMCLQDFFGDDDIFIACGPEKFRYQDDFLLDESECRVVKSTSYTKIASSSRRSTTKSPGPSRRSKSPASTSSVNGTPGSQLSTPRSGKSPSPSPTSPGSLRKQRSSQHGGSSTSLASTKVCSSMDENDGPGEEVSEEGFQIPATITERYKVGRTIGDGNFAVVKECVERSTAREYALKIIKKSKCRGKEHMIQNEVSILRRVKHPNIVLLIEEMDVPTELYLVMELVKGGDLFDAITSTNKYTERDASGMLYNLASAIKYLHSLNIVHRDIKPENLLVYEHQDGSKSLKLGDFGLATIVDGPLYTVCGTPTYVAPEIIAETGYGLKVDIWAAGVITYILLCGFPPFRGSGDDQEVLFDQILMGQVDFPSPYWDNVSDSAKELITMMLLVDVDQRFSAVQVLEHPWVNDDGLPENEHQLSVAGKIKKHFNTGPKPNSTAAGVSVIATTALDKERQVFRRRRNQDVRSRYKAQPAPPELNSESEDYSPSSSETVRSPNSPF
T3 sequence (Q13464 whole entry): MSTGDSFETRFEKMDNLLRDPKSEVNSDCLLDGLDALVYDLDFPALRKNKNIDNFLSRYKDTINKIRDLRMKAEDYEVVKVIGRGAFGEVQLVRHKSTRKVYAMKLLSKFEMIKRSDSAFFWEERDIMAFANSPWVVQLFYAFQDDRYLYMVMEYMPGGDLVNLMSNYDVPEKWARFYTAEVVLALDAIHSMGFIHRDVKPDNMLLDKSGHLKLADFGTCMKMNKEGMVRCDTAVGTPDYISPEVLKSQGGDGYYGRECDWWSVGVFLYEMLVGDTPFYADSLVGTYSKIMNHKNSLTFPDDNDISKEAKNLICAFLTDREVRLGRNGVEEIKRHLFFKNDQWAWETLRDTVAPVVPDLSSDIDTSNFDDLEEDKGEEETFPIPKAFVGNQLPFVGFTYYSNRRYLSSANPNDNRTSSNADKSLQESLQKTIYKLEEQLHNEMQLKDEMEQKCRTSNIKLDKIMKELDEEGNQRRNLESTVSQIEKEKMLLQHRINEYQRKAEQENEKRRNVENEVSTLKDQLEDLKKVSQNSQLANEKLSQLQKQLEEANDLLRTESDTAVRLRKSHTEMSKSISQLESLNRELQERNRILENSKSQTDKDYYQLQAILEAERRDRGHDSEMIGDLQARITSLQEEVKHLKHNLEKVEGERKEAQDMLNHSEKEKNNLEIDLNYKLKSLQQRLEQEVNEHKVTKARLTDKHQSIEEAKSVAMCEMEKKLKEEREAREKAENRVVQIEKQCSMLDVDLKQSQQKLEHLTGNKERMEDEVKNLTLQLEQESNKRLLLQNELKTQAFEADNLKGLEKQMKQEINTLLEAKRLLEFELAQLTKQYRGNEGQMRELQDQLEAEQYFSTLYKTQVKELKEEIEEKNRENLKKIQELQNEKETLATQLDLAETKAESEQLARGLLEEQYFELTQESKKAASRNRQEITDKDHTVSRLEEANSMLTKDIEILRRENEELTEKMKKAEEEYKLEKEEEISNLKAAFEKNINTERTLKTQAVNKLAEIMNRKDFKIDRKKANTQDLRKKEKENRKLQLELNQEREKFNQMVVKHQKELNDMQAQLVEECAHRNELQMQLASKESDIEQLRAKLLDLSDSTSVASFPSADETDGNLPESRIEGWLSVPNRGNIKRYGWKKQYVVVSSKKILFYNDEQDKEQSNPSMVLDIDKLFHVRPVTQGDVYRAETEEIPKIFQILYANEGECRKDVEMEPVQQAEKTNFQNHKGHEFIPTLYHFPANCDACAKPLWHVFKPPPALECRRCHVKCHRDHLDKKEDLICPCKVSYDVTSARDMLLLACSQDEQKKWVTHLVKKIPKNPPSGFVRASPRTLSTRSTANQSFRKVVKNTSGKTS
T7 sequence (Q9P289 whole entry): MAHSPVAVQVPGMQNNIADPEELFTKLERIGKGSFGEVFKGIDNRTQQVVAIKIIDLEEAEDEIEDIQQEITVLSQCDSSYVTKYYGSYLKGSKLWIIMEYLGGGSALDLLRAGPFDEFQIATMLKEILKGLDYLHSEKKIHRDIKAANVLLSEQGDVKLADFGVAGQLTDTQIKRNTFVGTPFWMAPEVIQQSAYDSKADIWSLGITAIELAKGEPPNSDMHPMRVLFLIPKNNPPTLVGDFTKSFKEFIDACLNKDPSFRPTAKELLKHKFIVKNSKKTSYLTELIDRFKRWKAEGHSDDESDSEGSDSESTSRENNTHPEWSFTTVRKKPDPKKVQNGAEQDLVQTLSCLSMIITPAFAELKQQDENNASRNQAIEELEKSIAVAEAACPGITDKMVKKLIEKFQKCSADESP
T1 sequence (P07333 20-972): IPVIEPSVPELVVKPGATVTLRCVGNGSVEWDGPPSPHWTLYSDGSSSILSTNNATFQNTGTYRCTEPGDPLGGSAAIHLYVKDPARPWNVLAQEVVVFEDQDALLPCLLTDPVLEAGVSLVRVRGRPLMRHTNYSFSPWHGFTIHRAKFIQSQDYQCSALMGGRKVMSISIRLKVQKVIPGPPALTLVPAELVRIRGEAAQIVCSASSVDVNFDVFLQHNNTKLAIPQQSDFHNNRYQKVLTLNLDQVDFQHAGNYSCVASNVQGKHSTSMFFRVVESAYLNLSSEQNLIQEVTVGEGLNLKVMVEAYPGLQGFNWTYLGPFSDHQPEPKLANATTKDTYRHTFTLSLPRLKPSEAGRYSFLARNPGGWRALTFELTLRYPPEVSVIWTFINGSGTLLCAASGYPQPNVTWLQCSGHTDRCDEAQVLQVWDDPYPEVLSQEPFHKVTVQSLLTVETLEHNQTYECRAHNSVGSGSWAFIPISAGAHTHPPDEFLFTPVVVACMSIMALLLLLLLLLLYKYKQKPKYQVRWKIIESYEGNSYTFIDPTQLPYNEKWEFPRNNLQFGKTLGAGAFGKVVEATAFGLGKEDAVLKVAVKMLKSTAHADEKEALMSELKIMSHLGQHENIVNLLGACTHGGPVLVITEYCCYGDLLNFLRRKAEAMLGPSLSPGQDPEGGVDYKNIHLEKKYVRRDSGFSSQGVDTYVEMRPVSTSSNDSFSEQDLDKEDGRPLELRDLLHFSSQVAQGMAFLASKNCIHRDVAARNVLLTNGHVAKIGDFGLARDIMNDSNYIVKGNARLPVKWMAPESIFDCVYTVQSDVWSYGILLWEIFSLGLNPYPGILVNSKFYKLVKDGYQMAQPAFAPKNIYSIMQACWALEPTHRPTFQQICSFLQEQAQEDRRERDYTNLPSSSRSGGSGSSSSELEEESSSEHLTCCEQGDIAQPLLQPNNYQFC
T8 sequence (Q9NYL2 whole entry): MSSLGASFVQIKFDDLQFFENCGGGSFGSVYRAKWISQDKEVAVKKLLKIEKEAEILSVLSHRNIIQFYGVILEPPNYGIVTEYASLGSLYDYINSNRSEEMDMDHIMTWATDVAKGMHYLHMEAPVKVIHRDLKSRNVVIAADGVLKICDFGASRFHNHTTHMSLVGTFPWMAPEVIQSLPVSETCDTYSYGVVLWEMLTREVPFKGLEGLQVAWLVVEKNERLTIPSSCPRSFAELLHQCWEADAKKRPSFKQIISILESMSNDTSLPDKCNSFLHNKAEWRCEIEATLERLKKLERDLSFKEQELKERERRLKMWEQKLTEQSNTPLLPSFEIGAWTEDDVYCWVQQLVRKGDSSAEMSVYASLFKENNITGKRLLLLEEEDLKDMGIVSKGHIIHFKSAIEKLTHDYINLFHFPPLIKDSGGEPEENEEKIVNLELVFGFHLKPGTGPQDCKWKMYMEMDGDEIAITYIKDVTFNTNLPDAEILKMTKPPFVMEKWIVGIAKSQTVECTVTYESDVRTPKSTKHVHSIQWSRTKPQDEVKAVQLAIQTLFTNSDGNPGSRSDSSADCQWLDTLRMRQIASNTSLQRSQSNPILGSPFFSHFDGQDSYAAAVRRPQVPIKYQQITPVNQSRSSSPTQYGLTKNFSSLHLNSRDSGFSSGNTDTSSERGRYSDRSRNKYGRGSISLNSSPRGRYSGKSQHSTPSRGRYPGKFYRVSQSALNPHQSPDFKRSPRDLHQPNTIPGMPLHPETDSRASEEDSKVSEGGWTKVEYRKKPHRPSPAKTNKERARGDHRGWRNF

Structure (SMILES): C=CC(=O)Nc1cc(-c2cc(-c3cc4c([nH]3)CCNC4=O)ccn2)ccc1OC(F)(F)F [compound 11]
- inhibition at 0.01 µM ([1]; 10 nM): -8%
- inhibition at 0.1 µM ([1]; 100 nM): -9%
- inhibition at 1 µM ([1]; 1000 nM): -6%
- inhibition at 0.01 µM ([2]; 10 nM): 3%
- inhibition at 0.1 µM ([2]; 100 nM): -1%
- inhibition at 1 µM ([2]; 1000 nM): -1%
- inhibition at 0.01 µM ([3]; 10 nM): 2%
- inhibition at 0.1 µM ([3]; 100 nM): -1%
- inhibition at 1 µM ([3]; 1000 nM): -7%
- inhibition at 0.01 µM ([4]; 10 nM): -2%
- inhibition at 0.1 µM ([4]; 100 nM): -4%
- inhibition at 1 µM ([4]; 1000 nM): 3%
- inhibition at 0.01 µM ([5]; 10 nM): 13%
- inhibition at 0.1 µM ([5]; 100 nM): 4%
- inhibition at 1 µM ([5]; 1000 nM): 12%
- inhibition at 0.01 µM ([6]; 10 nM): -3%
- inhibition at 0.1 µM ([6]; 100 nM): -8%
- inhibition at 1 µM ([6]; 1000 nM): -2%
- inhibition at 0.01 µM ([7]; 10 nM): -5%
- inhibition at 0.1 µM ([7]; 100 nM): -8%
- inhibition at 1 µM ([7]; 1000 nM): 2%
- inhibition at 0.01 µM ([8]; 10 nM): -3%
- inhibition at 0.1 µM ([8]; 100 nM): -1%
- inhibition at 1 µM ([8]; 1000 nM): 1%
- inhibition at 0.01 µM ([9]; 10 nM): 9%
- inhibition at 0.1 µM ([9]; 100 nM): 8%
- inhibition at 1 µM ([9]; 1000 nM): 6%
